Measured values from patent US12552747B2, “Amino acid derivative containing non-steroidal anti-inflammatory drug structure and preparation method and application thereof” (priority 2020, dated 2026).
Marks after values point to notes of the source that are not given here.

Columns and labels:
Lung cancer H292 cells = test: In vitro antitumor activity test (MTT), H292; assay type: cell-based; conditions: Homo sapiens, NCI-H292, 24 h
Description: (§1) 13 human tumor cell lines were selected and cultured in RPMI-1640 medium (Gibco company) containing 10% inactivated fetal bovine serum, 100 U/ml penicillin and 100 U/ml streptomycin, cultured at 37° C. in a 5% CO2 incubator, and passaged once every 2 days. Using the MTT method, cells in the logarithmic growth phase were digested with 0.25% trypsin, centrifuged at 1000 r/min for 5 min, 8×10^3 cells were added to each well, and seeded in a 96-well plate, and 180 μl of cell suspension was added to each well, and a blank was set at the same time. The 96-well plate inoculated with tumor cells was placed in a carbon dioxide incubator for 24 hours, and then 20 μl of the drug was added, and an equal volume of culture medium was added to the blank control well, and the drug was divided into 8 concentrations from 50 μg/L to 0.4 μg/L. Three duplicate wells were set for each drug concentration and placed in an incubator for 24 h. 10 μl of MTT solution (5 mg/ml) was added to each well, and the culture was continued for 4 h. The supernatant was aspirated and discarded, 100 μl of dimethyl sulfoxide (DMSO) solution was added to each well, placed on a micro shaker for 10 min, and the absorbance (A value) was measured at a wavelength of 492 nm in a microplate reader, and the inhibition rate of the drug on tumor cells was calculated according to the following formula.
(§2) In this test, the IC50 value of the compound on tumor cells was calculated by the Origin software according to the inhibition rate of the compound. AC-201 in the following table was the abbreviation of PL-AC-201, and so on.

Lung cancer A549 cells = test: In vitro antitumor activity test (MTT), A549; assay type: cell-based; conditions: Homo sapiens, 24 h
Description: as §1, §2

[1] = system: 13 human tumor cell lines; test: Average IC50 over the tumor cell lines (MTT); assay type: cell-based; conditions: mean IC50 for each tumor, read-out: AverageIC50
Description: as §1, §2
The ratio of the hemolytic concentration MHC of the compound to the mean IC50 for each tumor was referred to as the therapeutic index (TI). The safety of the compound was evaluated by the therapeutic index. The higher the therapeutic index, the greater the safety range of the compound.

Lung cancer H460 cells = test: In vitro antitumor activity test (MTT), H460; assay type: cell-based; conditions: Homo sapiens, NCI-H460, 24 h
Description: as §1, §2

SK-hep1 liver tumors = test: Transplanted tumor in nude mice, intraperitoneal, SK-hep1; assay type: in vivo, BALB/c nude mice; conditions: 8 administrations; for Tumor inhibition rate / Tumor weight: SK-hep1, 5 mg/kg i.p. once every 3 days; for Body Weight After administration: SK-hep1 tumor-bearing BALB/c mice, 5 mg/kg i.p. once every 3 days
Description: (§3) BALB/c nude mice were used to inoculate Bel-7402, HepG-2 and SK-hep1 liver tumors according to the transplanted tumor research method under aseptic operation, and the cell density was not less than 5×10^6/ml, 0.2 ml was inoculated subcutaneously in the axilla of the right hind limb of each mouse. After the cells were inoculated, the cells were administered intraperitoneally (concentration: 5 mg/kg), once every 3 days, for a total of 8 administrations. After the 2nd day of drug withdrawal, all tumor-bearing mice were sacrificed, and their body weight, tumor weight and tumor inhibition were weighed.

human red blood cells = test: Detection of hemolytic activity; assay type: cell-based
Description: 2-3 ml of human blood was drawn using an anticoagulant tube, thoroughly mixed, and kept at 4° C. for later use. 2 ml of blood was aspirated and added with 2-3 ml of PBS, followed by gently pipetting and centrifugation for 5 min at 1000 rpm, which was repeated 3-4 times. After the last centrifugation, PBS was aspirated, PBS was added to 40 ml (20 times the volume), and the number of blood cells at this time was 2×10^8 cells/ml. The red blood cell suspension was added to the plate (U-shaped 96-well plate), and 70 μl/well was used as a negative well. Only PBS was added to blank wells, 140 μl/well. 2 ml of the red blood cell suspension was centrifuged, PBS was discarded, 2 ml of pure water was added, mixed well, and 140 μl/well was used as a positive well. The diluted polypeptide solutions of different concentrations were added to the plate, 70 μl/well. Incubated at 37° C., 87 rpm, shaken for 2h, centrifuged for 5 min at 3000 rpm. The OD value measured by microplate reader: After centrifugation, 90 μl of supernatant was drawn and transferred to a flat-bottom 96-well plate, and the OD value at 578 nm was measured by microplate reader. ODtest-OD negative >0.1 (the first concentration that met the conditions was MHC).

[2] = system: Breast cancer MCF-7 cells; test: In vitro antitumor activity test (MTT), MCF-7; assay type: cell-based; conditions: Homo sapiens, MCF7; Breast cancer MCF-7, MTT, 24 h
Description: as §1, §2

Colon cancer HT29 cells = test: In vitro antitumor activity test (MTT), HT29; assay type: cell-based; conditions: Homo sapiens, HT-29, 24 h
Description: as §1, §2

[3] = system: Liver cancer SK-hep1 cells; test: In vitro antitumor activity test (MTT), SK-hep1; assay type: cell-based; conditions: Homo sapiens, 24 h
Description: as §1, §2

Bel-7402 liver tumors = test: Transplanted tumor in nude mice, intraperitoneal, Bel-7402; assay type: in vivo, BALB/c nude mice; conditions: 8 administrations; for Tumor inhibition rate / Tumor weight: Bel-7402, 5 mg/kg i.p. once every 3 days; for Body Weight After administration: Bel-7402 tumor-bearing BALB/c mice, 5 mg/kg i.p. once every 3 days
Description: as §3

[4] = system: Pancreatic cancer Bxpc-3 cells; test: In vitro antitumor activity test (MTT), Bxpc-3; assay type: cell-based; conditions: Homo sapiens; Pancreatic cancer Bxpc-3, MTT, 24 h
Description: as §1, §2

HepG-2 liver tumors = test: Transplanted tumor in nude mice, intraperitoneal, HepG-2; assay type: in vivo, BALB/c nude mice; conditions: 8 administrations; for Tumor inhibition rate / Tumor weight: HepG-2, 5 mg/kg i.p. once every 3 days; for Body Weight After administration: HepG-2 tumor-bearing BALB/c mice, 5 mg/kg i.p. once every 3 days
Description: as §3

[5] = system: Cervical cancer Hela cells; test: In vitro antitumor activity test (MTT), Hela; assay type: cell-based; conditions: Homo sapiens, 24 h
Description: as §1, §2

Lung cancer H1299 cells = test: In vitro antitumor activity test (MTT), H1299; assay type: cell-based; conditions: Homo sapiens, NCI-H1299, 24 h
Description: as §1, §2

[6] = system: Human osteosarcoma MG63 cells; test: In vitro antitumor activity test (MTT), MG63; assay type: cell-based; conditions: MG-63, 24 h
Description: as §1, §2

Melanoma B16 cells = test: In vitro antitumor activity test (MTT), B16; assay type: cell-based; conditions: 24 h
Description: as §1, §2

[7] = Acute toxicity test of single administration to ICR mice; conditions: mouse, in vivo, intravenous, single tail vein injection, observed 7 days
Description: ICR mice, 18-22 g, were raised in a common-grade animal room, fed with common feed, and ingested freely. The group distance and dose were determined after exploring the Dm and Dn of the compounds of the examples. Five concentrations of the compounds of the examples were formulated at the desired dose. The corresponding doses of drugs were injected into the tail vein according to body weight, and the blank control group was injected with normal saline. Immediately after administration, the performance and death of each animal were observed and recorded, and the possible toxic reaction or death of animals within 7 days after a single administration was observed and recorded.

[8] = system: Liver cancer Bel-7402 cells; test: In vitro antitumor activity test (MTT), Bel-7402; assay type: cell-based; conditions: Homo sapiens; Liver cancer Bel-7402, MTT, 24 h
Description: as §1, §2

[9] = system: Liver cancer HepG-2 cells; test: In vitro antitumor activity test (MTT), HepG-2; assay type: cell-based; conditions: Homo sapiens, HepG2; Liver cancer HepG-2, MTT, 24 h
Description: as §1, §2

[10] = human red blood cells, 37° C., 2h, first concentration with ODtest-OD negative >0.1

SMILES	IC50 (Lung cancer H292 cells) [nM]	IC50 (Lung cancer A549 cells) [nM]	IC50 [1] [nM]	IC50 (Lung cancer H460 cells) [nM]	MHC (human red blood cells; hemolytic concentration, in nM) [nM]	MHC (human red blood cells; [10]) [µg/mL]	IC50 [2] [nM]	IC50 (Colon cancer HT29 cells) [nM]	IC50 [3] [nM]	IC50 [4] [nM]	Tumor inhibition rate (HepG-2 liver tumors)	Tumor weight (HepG-2 liver tumors) [mg]	Body Weight After administration (HepG-2 liver tumors) [g]	IC50 [5] [nM]	IC50 (Lung cancer H1299 cells) [nM]	IC50 [6] [nM]	IC50 (Melanoma B16 cells) [nM]	LD50 at 7 days [7] [mg/kg]	IC50 [8] [nM]	IC50 [9] [nM]	also measured
CC1(C)CC(NC(=O)C(Cc2ccc(-c3ccccc3)cc2)NC(=O)c2cc3ccccc3n2Cc2ccccc2)CC(C)(C)N1 (stereo not drawn) [PL-AC-15, reference compound]	28.3	31.2	32	22	1.6e+06	1000	23.2	38.2	26.4	48.9	66.7** %	549.9 ± 10.2	23.8 ± 1.0	19.7	24.4	25.8	30.5	23.6	81.7	16.2	Tumor inhibition rate (SK-hep1 liver tumors): 60.6** %; Tumor weight (SK-hep1 liver tumors): 441.5 ± 10.8 mg; Body Weight After administration (SK-hep1 liver tumors): 23.2 ± 0.3 g; Tumor inhibition rate (Bel-7402 liver tumors): 61.8** %; Tumor weight (Bel-7402 liver tumors): 302.9 ± 0.8 mg; Body Weight After administration (Bel-7402 liver tumors): 25.2 ± 1.1 g
CC(=O)Oc1ccccc1C(=O)NC(Cc1ccc(-c2ccccc2)cc1)C(=O)NC1CC(C)(C)NC(C)(C)C1 (stereo not drawn) [PL-AC-201]	22.3	29.9	28.2	21.9	5.8e+06	3000	24.3	35.9	16.2	52.1	69.3** %	506.9 ± 9.4	22.9 ± 1.4	19.5	23.7	24.8	29.8	27.2	50.2	16.1	Tumor inhibition rate (SK-hep1 liver tumors): 61.2** %; Tumor weight (SK-hep1 liver tumors): 434.7 ± 9.4 mg; Body Weight After administration (SK-hep1 liver tumors): 23.7 ± 1 g; Tumor inhibition rate (Bel-7402 liver tumors): ^ΔΔ66.2** %; Tumor weight (Bel-7402 liver tumors): 268.1 ± 9.6 mg; Body Weight After administration (Bel-7402 liver tumors): 23.2 ± 1.0 g
COc1ccc2cc(C(C)C(=O)NC(Cc3ccc(-c4ccccc4)cc3)C(=O)NC3CC(C)(C)NC(C)(C)C3)ccc2c1 (stereo not drawn) [PL-AC-202]	20.1	23.2	24	18.5	5.1e+06	3000	21.1	32.5	11.5	35.1	^ΔΔ75.4** %	406.2 ± 5.9	22.8 ± 0.8	16.1	19.8	24.1	28.4	34.8	45.6	15.8	Tumor inhibition rate (SK-hep1 liver tumors): ^ΔΔ71.7** %; Tumor weight (SK-hep1 liver tumors): 317.1 ± 8.7 mg; Body Weight After administration (SK-hep1 liver tumors): 24.9 ± 1.0 g; Tumor inhibition rate (Bel-7402 liver tumors): ^ΔΔ73.1** %; Tumor weight (Bel-7402 liver tumors): 213.3 ± 9.3 mg; Body Weight After administration (Bel-7402 liver tumors): 22.9 ± 1.1 g
CC1(C)CC(NC(=O)C(Cc2ccc(-c3ccccc3)cc2)NC(=O)Cc2ccccc2Nc2c(Cl)cccc2Cl)CC(C)(C)N1 (stereo not drawn) [PL-AC-203]	24.9	24.2	27.7	20.8	3e+06	2000	23.1	37	22.6	49.4	^ΔΔ72.4** %	455.8 ± 9.9	22.7 ± 1.7	20	20.5	26	30.1	39.8	45.4	16	Tumor inhibition rate (SK-hep1 liver tumors): ^ΔΔ68.3** %; Tumor weight (SK-hep1 liver tumors): 355.2 ± 1.2 mg; Body Weight After administration (SK-hep1 liver tumors): 24.7 ± 0.5 g; Tumor inhibition rate (Bel-7402 liver tumors): 58.7** %; Tumor weight (Bel-7402 liver tumors): 327.4 ± 10.4 mg; Body Weight After administration (Bel-7402 liver tumors): 24.1 ± 0.9 g
C/C(=C1/c2ccc(F)cc2C(CC(=O)NC(Cc2ccc(-c3ccccc3)cc2)C(=O)NC2CC(C)(C)NC(C)(C)C2)C1C)c1ccc([S+](C)[O-])cc1 (stereo not drawn) [PL-AC-204]	27.6	29.8	28.1	21.6	4.1e+06	3000	23.1	37.4	23.6	49.4	65.1** %	576.3 ± 10.7	23.1 ± 1.0	19.2	21.6	24.5	30.5	29.9	40.7	15.9	–
COc1ccc2c(c1)c(CC(=O)NC(Cc1ccc(-c3ccccc3)cc1)C(=O)NC1CC(C)(C)NC(C)(C)C1)c(C)n2C(=O)c1ccc(Cl)cc1 (stereo not drawn) [PL-AC-205]	27.4	24.5	25.3	20.3	4.2e+06	3000	23.2	37	12.4	45.3	^Δ71.8** %	465.6 ± 5.9	21.9 ± 1.2	19.5	20.3	25.7	31.7	35.6	< 38.2	16.2	Tumor inhibition rate (SK-hep1 liver tumors): 62.0** %; Tumor weight (SK-hep1 liver tumors): 425.8 ± 10.7 mg; Body Weight After administration (SK-hep1 liver tumors): 22.2 ± 0.9 g; Tumor inhibition rate (Bel-7402 liver tumors): ^ΔΔ69.4** %; Tumor weight (Bel-7402 liver tumors): 242.8 ± 6.6 mg; Body Weight After administration (Bel-7402 liver tumors): 23.9 ± 0.6 g
